Data from US20260102359A1, “COMBINATION TREATMENT OF DERMAL AND TRANSDERMAL FIBROTIC DISEASES, DISORDERS AND ASSOCIATED PAIN AND INFLAMMATION” (ERESINA, LLC, priority 2022, published 2026).
Where a name gives a salt, the structure may show the parent alone. Where a SMILES comes first, the peptide text is derived from it.

Tested on: hDMFa myofibroblast cells

`CCOC(=O)C=Cc1ccccc1` [Cmpd 437, Ethyl Cinnamate] was tested, and the “Compound Myofibroblast Cytotoxicity Activity” value was “++”.

For `C#C[C@]1(OC(C)=O)CC[C@H]2[C@@H]3CCC4=C[C@@H](OC(C)=O)CC[C@@H]4[C@H]3CC[C@@]21C` [Cmpd 439, Ethynodiol diacetate], the “Compound Myofibroblast Cytotoxicity Activity” value was “++”.

With `CCOC(=O)/C=C(C)/C=C/C=C(C)/C=C/c1c(C)cc(OC)c(C)c1C` [Cmpd 442, Etretinate] the “Compound Myofibroblast Cytotoxicity Activity” value was “+++”.

With `Cc1cc(-c2ccc(/N=N/c3ccc4c(S(=O)(=O)[O-])cc(S(=O)(=O)[O-])c(N)c4c3O)c(C)c2)ccc1/N=N/c1ccc2c(S(=O)(=O)[O-])cc(S(=O)(=O)[O-])c(N)c2c1O.[Na+].[Na+].[Na+].[Na+]` [Cmpd 445, Evans Blue tetrasodium salt] the “Compound Myofibroblast Cytotoxicity Activity” value was “++”.

`CO[C@H]1C[C@@H]2CC[C@@H](C)[C@@](O)(O2)C(=O)C(=O)N2CCCC[C@H]2C(=O)O[C@H]([C@H](C)C[C@@H]2CC[C@@H](OCCO)[C@H](OC)C2)CC(=O)[C@H](C)/C=C(\C)[C@@H](O)[C@@H](OC)C(=O)[C@H](C)C[C@H](C)/C=C/C=C/C=C/1C` [Cmpd 446, Everolimus (RAD001)] was tested, and the “Compound Myofibroblast Cytotoxicity Activity” value was “+++++”.

`CC(=O)OCC(CCn1cnc2cnc(N)nc21)COC(C)=O` [Cmpd 447, Famciclovir] was tested, and the “Compound Myofibroblast Cytotoxicity Activity” value was “+++”.

`CCOC(=O)C1=C(C)NC(C)=C(C(=O)OC)C1c1cccc(Cl)c1Cl` (stereo not drawn) [Cmpd 449, Felodipine] was tested, and the “Compound Myofibroblast Cytotoxicity Activity” value was “+++”.

For `CC(NCCC(c1ccccc1)c1ccccc1)c1ccccc1` (stereo not drawn) [Cmpd 450, Fendiline (hydrochloride)], the “Compound Myofibroblast Cytotoxicity Activity” value was “+++”.

`Clc1ccc(C(Cn2ccnc2)OCc2ccc(Sc3ccccc3)cc2)c(Cl)c1` (stereo not drawn) [Cmpd 452, Fenticonazole Nitrate] was tested, and the “Compound Myofibroblast Cytotoxicity Activity” value was “++++”.

With `COc1cc(/C=C/C(=O)O)ccc1O` [Cmpd 453, Ferulic Acid] the “Compound Myofibroblast Cytotoxicity Activity” value was “++”.

For `CCc1c(Cl)c(O)c(Cl)c(O)c1C(=O)O[C@H]1[C@H](O)[C@H](OC)[C@H](OC/C2=C\C=C\C[C@H](O)/C(C)=C/[C@H](CC)[C@@H](O[C@@H]3OC(C)(C)[C@@H](OC(=O)C(C)C)[C@H](O)[C@@H]3O)/C(C)=C/C(C)=C/C[C@@H]([C@@H](C)O)OC2=O)O[C@@H]1C` [Cmpd 454, Fidaxomicin], the “Compound Myofibroblast Cytotoxicity Activity” value was “+++++”.

With `CCC(=O)c1c(O)cc(O)cc1O` [Cmpd 458, Flopropione] the “Compound Myofibroblast Cytotoxicity Activity” value was “++”.

With `O=c1[nH]c(=O)n([C@H]2C[C@H](O)[C@@H](CO)O2)cc1F` [Cmpd 459, Floxuridine] the “Compound Myofibroblast Cytotoxicity Activity” value was “+++”.

With `Cl.Cl.Fc1ccc(C(c2ccc(F)cc2)N2CCN(C/C=C/c3ccccc3)CC2)cc1` [Cmpd 460, Flunarizine 2HCl] the “Compound Myofibroblast Cytotoxicity Activity” value was “++”.

In the case of `CC1(C)O[C@@H]2C[C@H]3[C@@H]4C[C@H](F)C5=CC(=O)C=C[C@]5(C)[C@H]4[C@@H](O)C[C@]3(C)[C@]2(C(=O)CO)O1` [Cmpd 461, Flunisolide], the “Compound Myofibroblast Cytotoxicity Activity” value is reported as “++”.

`O=C1OC2(c3ccc(O)cc3Oc3cc(O)ccc32)c2ccccc21` [Cmpd 462, Fluorescein] was tested, and the “Compound Myofibroblast Cytotoxicity Activity” value was “++”.

`CC(=O)[C@@]1(O)CC[C@H]2[C@@H]3C[C@H](C)C4=CC(=O)C=C[C@]4(C)[C@@]3(F)[C@@H](O)C[C@@]21C` [Cmpd 463, Fluorometholone] was tested, and the “Compound Myofibroblast Cytotoxicity Activity” value was “++”.

In the case of `CNCCC(Oc1ccc(C(F)(F)F)cc1)c1ccccc1` (stereo not drawn) [Cmpd 464, Fluoxetine HCl], the “Compound Myofibroblast Cytotoxicity Activity” value is reported as “+++”.

For `Cl.Cl.OCCN1CCN(CCCN2c3ccccc3Sc3ccc(C(F)(F)F)cc32)CC1` [Cmpd 465, Fluphenazine dihydrochloride], the “Compound Myofibroblast Cytotoxicity Activity” value was “+++++”.

For `COCCCC/C(=N\OCCN)c1ccc(C(F)(F)F)cc1` [Cmpd 466, Fluvoxamine maleate], the “Compound Myofibroblast Cytotoxicity Activity” value was “++”.

In the case of `Nc1nc2ncc(CNc3ccc(C(=O)N[C@@H](CCC(=O)O)C(=O)O)cc3)nc2c(=O)[nH]1` [Cmpd 467, Folic acid], the “Compound Myofibroblast Cytotoxicity Activity” value is reported as “++”.

In the case of `Nc1nc(=O)c2c([nH]1)NCC(CNc1ccc(C(=O)N[C@@H](CCC(=O)[O-])C(=O)[O-])cc1)N2C=O.[Ca+2]` (stereo partly drawn) [Cmpd 468, Folinic Acid (calcium salt)], the “Compound Myofibroblast Cytotoxicity Activity” value is reported as “+++”.

In the case of `CNC(=O)c1c(C)oc2cc(Oc3ncnc4cc(OC)c(OC)cc34)ccc12` [Cmpd 472, Fruquintinib(HMPL-013)], the “Compound Myofibroblast Cytotoxicity Activity” value is reported as “++++”.

In the case of `N[C@@H](CSCCCO)C(=O)O` [Cmpd 473, Fudosteine], the “Compound Myofibroblast Cytotoxicity Activity” value is reported as “++++”.

In the case of `CC(=O)O[C@H]1C[C@@]2(C)[C@@H](C[C@@H](O)[C@H]3[C@@]4(C)CC[C@@H](O)[C@@H](C)[C@@H]4CC[C@@]32C)/C1=C(\CCC=C(C)C)C(=O)O` [Cmpd 477, Fusidic Acid (sodium salt)], the “Compound Myofibroblast Cytotoxicity Activity” value is reported as “+++”.

For `CC(C)=C1C/C=C(\C)CC/C=C(\C)CC1=O` [Cmpd 482, Germacrone], the “Compound Myofibroblast Cytotoxicity Activity” value was “+++++”.

For `COc1ccc2c(c1)C(=O)N(CCc1ccc(S(=O)(=O)NC(=O)NC3CCCCC3)cc1)C(=O)C2(C)C` [Cmpd 485, Gliquidone], the “Compound Myofibroblast Cytotoxicity Activity” value was “++”.

For `NCC(=O)O` [Cmpd 487, Glycine (GLY)], the “Compound Myofibroblast Cytotoxicity Activity” value was “++++”.

For `C[C@H](CCC(=O)NCC(=O)O)[C@H]1CC[C@H]2[C@@H]3[C@H](O)C[C@@H]4C[C@H](O)CC[C@]4(C)[C@H]3C[C@H](O)[C@]12C` [Cmpd 488, Glycocholic Acid], the “Compound Myofibroblast Cytotoxicity Activity” value was “++++”.

In the case of `NCC(=O)NCC(=O)O` [Cmpd 489, Glycylglycine] (H-Gly-Gly-OH), the “Compound Myofibroblast Cytotoxicity Activity” value is reported as “++”.

`C[C@]1(OC(=O)/C=C/c2ccccc2)C[C@@H](O)[C@]2(O)C=CO[C@@H](O[C@@H]3O[C@H](CO)[C@@H](O)[C@H](O)[C@H]3O)[C@@H]21` [Cmpd 499, Harpagoside] was tested, and the “Compound Myofibroblast Cytotoxicity Activity” value was “++”.

For `COc1ccc([C@@H]2CC(=O)c3c(O)cc(O)cc3O2)cc1O` [Cmpd 503, Hesperitin], the “Compound Myofibroblast Cytotoxicity Activity” value was “++”.

`Oc1c(Cl)cc(Cl)c(Cl)c1Cc1c(O)c(Cl)cc(Cl)c1Cl` [Cmpd 504, Hexachlorophene] was tested, and the “Compound Myofibroblast Cytotoxicity Activity” value was “+++++”.

`C[Si]1(C)O[Si](C)(C)O[Si](C)(C)O1` [Cmpd 505, Hexamethylcyclotrisiloxane] was tested, and the “Compound Myofibroblast Cytotoxicity Activity” value was “+”.

In the case of `CC[C@H]1CN2CC[C@H]1C[C@@H]2[C@@H](O)c1ccnc2ccc(OC)cc12` [Cmpd 508, Hydroquinidine], the “Compound Myofibroblast Cytotoxicity Activity” value is reported as “++”.

In the case of `Oc1ccc(O)cc1` [Cmpd 509, Hydroquinone], the “Compound Myofibroblast Cytotoxicity Activity” value is reported as “++”.

`CC(=O)[C@]1(O)Cc2c(O)c3c(c(O)c2[C@@H](O[C@H]2C[C@H](N)[C@H](O)[C@H](C)O2)C1)C(=O)c1ccccc1C3=O` [Cmpd 515, Idarubicin HCl] was tested, and the “Compound Myofibroblast Cytotoxicity Activity” value was “+++++”.

In the case of `O=P1(NCCCl)OCCCN1CCCl` (stereo not drawn) [Cmpd 518, Ifosfamide], the “Compound Myofibroblast Cytotoxicity Activity” value is reported as “+++”.

In the case of `CN(C)CCCN1c2ccccc2CCc2ccccc21` [Cmpd 523, Imipramine (hydrochloride)], the “Compound Myofibroblast Cytotoxicity Activity” value is reported as “+++”.

In the case of `CC1Cc2ccccc2N1NC(=O)c1ccc(Cl)c(S(N)(=O)=O)c1` (stereo not drawn) [Cmpd 527, Indapamide], the “Compound Myofibroblast Cytotoxicity Activity” value is reported as “+++”.

For `O=C1/C(=C2\Nc3ccc(S(=O)(=O)[O-])cc3C2=O)Nc2ccc(S(=O)(=O)[O-])cc21.[Na+].[Na+]` [Cmpd 528, Indigo carmine], the “Compound Myofibroblast Cytotoxicity Activity” value was “++”.

For `NC(=O)c1ccc(I)c([N+](=O)[O-])c1` [Cmpd 531, Iniparib (BSI-201)], the “Compound Myofibroblast Cytotoxicity Activity” value was “+++++”.
